Reference: ChEMBL document CHEMBL1159008, “Isolation, NMR studies, and biological activities of onopordopicrin from Centaurea sonchifolia” (J Nat Prod, 1992)
Values after ≈ are worked out from the molar mass of the structure shown. Active and inactive are the calls of the source. The rule behind the calls is not given here.

Tests used:
[1] = tested on: Trichophyton mentagrophytes; experiment: Antifungal activity against Trichophyton mentagrophytes A-23 at 250 ug/dsik; assay type: functional, organism-based
[2] = tested on: Staphylococcus aureus; experiment: Antibacterial activity against Staphylococcus aureus ATCC 25923 by disk diffusion assay; assay type: functional, organism-based
[3] = tested on: Saccharomyces cerevisiae; experiment: Antifungal activity against Saccharomyces cerevisiae M25 at 250 ug/dsik; assay type: functional, organism-based
[4] = tested on: KB; experiment: Cytotoxicity against human KB cells; assay type: functional, cell-based
[5] = tested on: Candida albicans; experiment: Antifungal activity against Candida albicans A-26 at 250 ug/dsik; assay type: functional, organism-based

Question: What does the source list for `C=C(CO)C(=O)O[C@H]1C/C(C)=C\CC/C(CO)=C\[C@H]2OC(=O)C(=C)[C@H]12` [ONOPORDOPICRIN]?
Answer: Activity [1]: inactive; Activity [2]: Active; Activity [3]: inactive; EC50 [4]: 0.85 µg/mL (≈ 2.44 µM); Activity [5]: inactive
